# Entries after “also recorded” stand apart in the source; their conditions may differ.
# Tests used:
# [1] = tested on: human vomeronasal organ (VNO); assay: Local electrical potentials recorded from the VNO after localized gaseous stimulation (Example 20); assay type: in vivo; conditions: for VNO response, males compared with females (sexually dimorphic): Fig. 2B; for VNO response: males, about 25 pg of steroid-ligand puffed 1 to 2 seconds, response measured in mV x s, Fig. 2A
# Method: A non-invasive method has been employed to record local electrical potentials from the human vomeronasal organ (VNO) and from the olfactory epithelium (OE). Localized gaseous stimulation was applied to both nasal structures at different instances using specially designed catheter/electrodes connected to a multichannel drug delivery system.
# The study was performed on ten clinically normal (screened) volunteers - 2 males and 8 females, ranging in age from 18 to 85 years. The studies were conducted without general or local anesthetics.
# The catheter/electrodes were designed to deliver a localized stimulus and simultaneously record the response. In the case of VNO recording, the right nasal fosa of the subject was explored using a nasoscope (nasal specula) and the vomeronasal opening was localized close to the intersection of the anterior edge of the vomer and the nasal floor. The catheter/electrode was gently driven through the VNO-opening and the electrode tip placed in the organ's lumen at 1 to 3 mm from the opening. The nasoscope was then removed. In the case of the OE, recording the procedure was similar except the positioning of the catheter/electrode was gently placed deep in the lateral part of the medial nasal duct, reaching the olfactory mucosa.
# Localized gaseous stimulation was done through the catheter/electrode. A constant stream of clean, nonodorous, humidified air at room temperature was continuously passed through a channel of the stimulating system. The stimulating ligand substances were diluted in propylene glycol, mixed with the humidified air, and puffed for from 1 to 2 seconds through the catheter/electrode. It is estimated that this administration provides about 25 pg of steroid-ligand to the nasal cavity.
# VNO [2] = assay: Electro-vomeronasogram (EVG) (Example 25); assay type: in vivo, human; conditions: for EVG response to olfactants delivered to the VNO: male and female subjects, 400 fmoles, Fig. 7B; for EVG response in female subjects (in words): 30 female subjects (ages 20 - 45), Fig. 6B; for EVG average response (mean): male subjects (ages 20 to 38), 1 second pulses, p<0.01, Fig. 6A
# Method: The following electrophysiological studies were performed in 60 clinically normal human volunteers of both sexes (30 male and 30 female) whose ages ranged from 20 to 45 years. No anesthetics were used, and female subjects were excluded if pregnant.
# (§1) The stimulation and recording system consists of a "multifunctional miniprobe" described elsewhere (Monti-Bloch, L. and Grosser, B.l. (1991) "Effect of putative pheromones on the electrical activity of the human vomeronasal organ and olfactory epithelium," J. Steroid Biochem. Molec. Biol. 39:573-582.). The recording electrode is a 0.3 mm silver ball attached to a small (0.1 mm) silver wire insulated with Teflon© the surface of the electrode is first treated to produce a silver chloride interface, and is then covered with gelatin It is positioned within a small caliber Teflon© catheter (dia = […]) such that the tip of the electrode protrudes approximately 2 mm. The Teflon© catheter is 10 cm in length and constitutes the terminal extension for a multichannel delivery system which delivers a continuous air stream carrying discreet pulses of chemosensory stimuli. The air stream first passes into a small chamber and is bubbled through a solution containing either a vomeropherin or an olfactant in a diluent or the diluent alone. A solenoid is used to rapidly redirect the air stream from the chamber to a route which bypasses the chamber. This creates a discreet pulse of stimulant in the air stream. A second, outer Teflon® tube with a diameter of 2 mm surrounds the catheter-electrode assemblage, and its central end is connected to an aspirator that provides continuous suction of 3ml/s. This concentric arrangement of the outer suction tube allows the emitted chemosensory stimuli to be localized to an area we call a "minifield" (approx. dia = 1 mm), and it avoids diffusion of substances either to the area outside the intended stimulation site or into the respiratory system. The entire stimulating and recording assemblage may be positioned either on the neurosensory epithelium within the VNO, or on the surface of the olfactory or respiratory epithelium. Electro-vomeronasogram (EVG): Recordings are carried out in a quiet room with the subject supine; the multifunctional miniprobe is initially stabilized within the nasal cavity using a nasal retractor placed in the vestibule. Reference and ground electrodes consist of silver discs (8 mm), both of which are positioned on the glabella.
# The entrance to the VNO, or vomeronasal pit, is identified by first dilating the nasal aperture and vestibule. A 6x magnifying binocular loupe with halogen illumination is then used to introduce the tip of the Teflon® catheter and recording electrode assemblage into the VNO opening where it is stabilized at an approximate depth of 1 mm within the vomeronasal passage. Optimal placement of the recording electrode is signaled after testing for an adequate depolarization in response to a test substance.
# Electrical signals from the recording electrode are fed to a DC amplifier after which they are digitized, computer monitored, and stored. The peak-to-peak amplitude of the signals is measured, and the area under the depolarization wave is integrated, while continuously monitoring the signal both on the computer screen and on a digital oscilloscope. Artifacts produced by respiratory movements are deleted by training the subjects to practice mouth breathing with velopharyngeal closure. Chemosensory Stimulants: Olfactory test substances are cineole, and 1-carvone; vomeropherins are A, B, C, E and F. (Vomeropherins were supplied by Pherin Corporation, Menlo Park, California), Samples of vomeropherins In concentration of 25-800 fmoles are delivered in the continuous air stream for durations from 300 milliseconds to 1 second. Usually, intervals of 3 to 5 minutes separated each series of short test pulses. […]
# [3] = tested on: olfactory epithelium (OE); assay: Electro-olfactgram (EOG) (Example 25); assay type: in vivo, human; conditions: 20 subjects (10 males, 10 females); 200 fmoles vomeropherins, 400 fmoles olfactants; one second pulses; Fig. 7A
# Excerpt: as §1
# Electrical signals from the recording electrode are fed to a DC amplifier after which they are digitized, computer monitored, and stored. The peak-to-peak amplitude of the signals is measured, and the area under the depolarization wave is integrated, while continuously monitoring the signal both on the computer screen and on a digital oscilloscope. […]
# Effects of Vomeropherins on the EOG: The summated receptor potential from the olfactory epithelium (OE) was recorded in 20 subjects: 10 males and 10 females. […]
# VNO [4] = assay: Skin temperature (ST) after VNO stimulation (Example 25); assay type: in vivo, human
# Method: (§2) Cortical evoked activity was induced by VNO stimulation with vomeropherins, and olfactory stimulation with odorants delivered in 300 ms air pulses. It was recorded using standard electroencephalographic (EEG) electrodes placed at positions Cz-A1 and Tz-A1 of the international […] system; the ground electrode was placed on the mastoid process. Electrodermal activity (EDA) was recorded using standard 8 mm silver electrodes in contact with palmar skin of the medial and ring fingers respectively, through a conductive gel interface. Skin temperature (ST) was recorded by a small (1.0 mm) thermistor probe placed in the right ear lobe. Peripheral arterial pulse (PAP) was monitored with a plethysmograph attached to the tip of the index finger. Respiratory frequency (RF) was measured with an adjustable strain gauge placed around the lower thorax. All electrical signals were DC amplified, digitized (MP-100, Biopac Systems) and continuously monitored utilizing a computer. Statistical Analysis: EVGs or EOGS, peak-to-peak changes and frequency changes of other parameters were measured and statistically analyzed. The significance of the results was determined by either using paired t-tests or analysis of variance (ANOVA). […] Recordings of the EVG were performed on 30 men and 30 women (ages 20 to 45). Vomeropherins were diluted and applied as 1 second pulses to the VNO with […] intervals between pulses when questioned, the subjects were not able to "smell" or otherwise consciously detect any of the vomeropherins.
# VNO [5] = assay: Autonomic responses to Estrene stimulation of the VNO (Example 22); assay type: in vivo, human; conditions: 40 male subjects, 1 second pulse
# Method: Various autonomic parameters were monitored while 1,3,5(10), 16-Estratetraen-3-yl-acetate was administered to 40 male subjects using the procedure described in Example 20. Propylene glycol was also administered as a control. The ligand was administered as a 1 second pulse. The change in autonomic function was first noted within 2 seconds and lasted for up to 45 seconds.
# VNO [6] = assay: Electrodermal activity (EDA) after VNO stimulation (Example 25); assay type: in vivo, human; conditions: p<0.01, n = 30; for skin resistance (electrodermal activity, EDA): male subjects, Fig. 6C
# Method: as §2
# VNO [7] = assay: Cortical evoked activity (EEG, alpha cortical activity) after VNO stimulation (Example 25); assay type: in vivo, human
# Method: as §2
# […] […] Synchronization of the EEG was sustained for 1.5 to 2.7 minutes after application of a single pulse of active substance.
# [8] = 30 male subjects, p<0.01, Fig. 6G
# [9] = males, 200 fmoles, air pulses 300 ms to 1 sec, Fig. 6E
compound,measurement,setting,value
"C[C@]12CC[C@@H]3c4ccc(O)cc4CC[C@H]3[C@@H]1C[C@@H](O)[C@@H]2O [1,3,5(10)-Estratrien-3, 16α,17δ-triol]","VNO response, males compared with females (sexually dimorphic)",[1],approximately four times as strong in males as it is in females
same,VNO response,[1],strong VNO response
"C=C(C)[C@@H]1CC=C(C)C(=O)C1 [1-carvone, reference compound]",EVG response to olfactants delivered to the VNO,VNO [2],only a minor local response in the VNO; also recorded: do not induce a significant EVG response
same,EOG local response of the OE (in words),[3],strong response in both men and women; also recorded: significant (p<0.01) local response
"CC(=O)Oc1ccc2c(c1)CC[C@@H]1[C@@H]2CC[C@]2(C)C=CC[C@@H]12 [A, 1,3, 5(10),16-Estratetraen-3-yl acetate]",skin temperature (ST),VNO [4]; [8],significant increase in skin temperature
same,EVG response in female subjects (in words),VNO [2]; 100 fmoles,small effect that was significantly different from F
same,EVG average response (mean),VNO [2]; 100 fmoles,11.4 mV
same,change in autonomic function first noted (onset),VNO [5],≤ 2 s
same,change in autonomic function lasted (duration),VNO [5],up to 45 seconds
same,integrated receptor potential in the VNO,"VNO [5]; compared to propylene glycol control, Fig. 4A",significant change
same,galvanic skin response,"VNO [5]; compared to propylene glycol control, Fig. 4B",significant change
same,"skin resistance (electrodermal activity, EDA)",VNO [6],decreased skin resistance
same,alpha cortical activity,VNO [7]; [9],significantly increased alpha cortical activity; also recorded: strongest effect
same,latency of increase in alpha cortical activity,"VNO [7]; males, 200 fmoles, Fig. 6E",270 to 380 ms
"C[C@@]12C=CC[C@H]1[C@@H]1CCc3cc(O)ccc3[C@H]1CC2 [C, 1,3,5(10),16-Estratetraen-3-ol]",skin temperature (ST),VNO [4]; [8],significant increase in skin temperature
same,EVG average response (mean),VNO [2]; 100 fmoles,6.4 mV
same,"VNO response, males compared with females (sexually dimorphic)",[1],approximately four times as strong in males as it is in females
same,VNO response,[1],significantly stronger VNO response in males than do the other compounds tested
same,"skin resistance (electrodermal activity, EDA)",VNO [6],decreased skin resistance
same,alpha cortical activity,VNO [7]; [9],significantly increased alpha cortical activity
same,latency of increase in alpha cortical activity,"VNO [7]; males, 200 fmoles, Fig. 6E",270 to 380 ms
"C[C@@]12C=CC[C@H]1[C@@H]1CCC3=C[C@H](O)CC[C@]3(C)[C@H]1CC2 [E, Androsta-4,16-dien-3α-ol]",EVG response in female subjects (in words),VNO [2]; 100 fmoles,does not stimulate the VNO in female subjects
same,EOG local response of the OE (in words),[3],stronger olfactory effect than does F; also recorded: significant (p<0.01) local response
"C[C@@]12C=CC[C@H]1[C@@H]1CCC3=C[C@@H](O)CC[C@]3(C)[C@H]1CC2 [F, Androsta-4,16-dien-3β-ol]",skin temperature (ST),"VNO [4]; 30 female subjects, p<0.01, compared to A and C, Fig. 6H",significant increase in skin temperature
same,EVG response in female subjects (in words),VNO [2]; 100 fmoles,produced the most significant differences within the group
same,EVG response in the male VNO (in words),"VNO [2]; male subjects, 100 fmoles, Fig. 6A and Fig. 7",significantly reduced responses in the male VNO
same,decrease in EDA,VNO [6]; female subjects,greater decrease in EDA than A or C
same,alpha cortical activity,"VNO [7]; females, single pulse (200 fmoles), Fig. 6F",increased alpha cortical
"CC12CCC(CC1)C(C)(C)O2 [cineole, reference compound]",EVG response to olfactants delivered to the VNO,VNO [2],only a minor local response in the VNO; also recorded: do not induce a significant EVG response
same,EOG local response of the OE (in words),[3],strong response in both men and women; also recorded: significant (p<0.01) local response
